Assay results taken from USPP13279P2, “Mint plant named ‘Saksham’” (Council of Scientific and Industrial Research, priority 2000, dated 2002).

Tested on: in vitro regenerates (shoots) of Mentha arvensis ‘Himalaya’ somaclones
Assay: Menthol tolerance/toxicity test of in vitro regenerates in MS based medium containing menthol
Type: cell-based
Text: The applicants used the plant ‘Himalaya’ (U.S. Plant Pat. No. 10,935), an elite mint genotype for large scale screening of in vitro raised clones (Khanuja S P S, Shasany A K, Dhawan S, Sushil Kumar, 1998, Rapid procedure for isolating somaclones of altered genotypes in Mentha arvensis. J medicinal and Aromatic Plant Sciences 20:359-361) to select clones tolerant to high menthol concentration in the medium (An efficient in vitro selection procedure for large scale screening of mint clones to isolate high menthol genotypes. Khanuja et al, Procedure patent pending, 1999).
While testing the tolerance of in vitro regenerates in presence of menthol in the MS based medium (Murashige T and Skoog F, 1962, A revised medium for rapid growth and bioassay with tobacco tissue cultures; Physiol. Planta. 15 473-497), the initial toxicity symptoms were first observed at the menthol concentration of 40 μg ml^−1 menthol after 7 days. […] Here it was immediate chlorophyll loss and irreversible wilting of the shoots, non-rescuable even by culturing these regenerates in normal medium without menthol. Lowest survival was detected at a concentration of 70 μg ml^−1, where only 1% shoots could survive. […] Ultimately 36, clones were selected for tolerance at 70 μg ml^−1 menthol by screening about 2950 clones. These were transferred to field for evaluation in a plant test area at Lucknow, India. […]

SMILES: CC1CCC(C(C)C)C(O)C1 (centres unmarked) [menthol]
- menthol concentration tolerated in the culture medium (clone GRB-30 (‘Saksham’), retesting in vitro): 80 µg/mL
- shoots that could survive (lowest survival) (menthol 70 μg ml^−1 in the medium): 1%
